Entries after “also recorded” stand apart in the source; their conditions may differ. Where two headings read alike, the source gives them in different places.
Tests used:
[1] = test system: rats subjected to middle cerebral artery occlusion (MCAO); settings: for infarction volume relative to vehicle injected rats: assayed 24 h after MCAO
Description: Male Wistar rats, 250-350 g, were obtained from Charles River (Wilmington, Mass.). Animals were housed and cared for in the Animal Resource Center and allowed free access to food and water before and after surgery. All procedures were approved by the Institutional Animal Care and Use Committee of Case Western Reserve University.
A 4.0 nylon suture with a flame rounded tip was advanced through the internal carotid artery to occlude the MCA while cerebral blood flow was monitored using laser doppler (Perimed AB, Jarfalla, Sweden). At the time of reperfusion rats were again anesthetized and the suture removed with cerebral blood flow monitoring to ensure reperfusion. Arterial blood pressure, arterial blood gases and temperature were all monitored and controlled during the length of the procedure.
Control animals were injected with 0.1 ml DMSO.
Rats were euthanized by exposure to 5% halothane until breathing ceased. They then underwent intracardiac perfusion first with PBS and then with 4% paraformaldehyde. Brains were isolated and immersion fixed in 4% paraformaldehyde overnight. Tissue was cryoprotected in 30% sucrose in PBS. Twenty micron frozen sections were collected every […] beginning at the level of the forceps minor corpus callosum and extending through the hippocampus. Sections were stained with Thionin and the area of infarction measured using Bioquant computer software (R&M Biometrics, Nashville, Tenn.) by subtracting the uninfarcted tissue in the ischemic hemisphere from the volume of the contralateral hemisphere. This method corrects for post-ischemic edema.
Male Wistar rats, 250-350 g, were obtained from Charles River (Wilmington, Mass.). […] Animals were housed and cared for in the Animal Resource Center and allowed free access to food and water before and after surgery. […] The tail artery was exposed and cannulated to measure mean arterial blood pressure and to obtain blood for blood gas measurements during surgery. Animals in which normal temperature, blood pressure and gases could not be maintained were excluded from the study. MCAO was performed as previously described. Briefly, the bifurcation of the common carotid artery was exposed. The external carotid artery was isolated and a suture placed 0.5 cm from the bifurcation. Following electrocoagulation distal to the suture the external carotid was cut between the suture and the electrocoagulated segment. A suture was applied to the common carotid artery such that it could be removed later. A loop of suture was then placed under the internal carotid artery and the artery elevated to transiently occlude blood flow. A small nick was made in the wall of the external carotid artery. Through this nick a 22 mm length of 4.0 Ethicon suture, its tip rounded by heating near a flame, was gently threaded from the external to the internal carotid artery lumen to a distance of 18 mm from the bifurcation of the carotid. The thread was held in place with a suture around the stump of the external carotid artery and the suture around the internal carotid artery released. The catheter was removed from the tail artery and both incisions were closed. The rats were then allowed to recover from anesthesia. […] The neck incision was reopened and the 4.0 Ethicon suture removed. The suture that held it in place was tightened and the suture around the common carotid artery was removed. After confirmation of reperfusion by visual inspection, the incision was closed and the animal allowed to recover.
Twenty micron frozen sections of paraformaldehyde fixed brains were collected every 1000 μm beginning at the level of the forceps minor corpus callosum and extending through the hippocampus. The slides were stained with Thionin. The sections were then trans-illuminated and the image transmitted to a computer screen.

myeloperoxidase-IR cells = assay: Quantification of myeloperoxidase-IR cells (leukocyte infiltration) after MCAO; format: in vivo, rat
Description: Frozen sections of the brains were cut coronally at ten microns. Sections were collected every 1000 mm beginning at the level of the forceps minor corpus callosum and extending through the hippocampus. Ten micron cryostat sections were labeled using either mouse anti-ICAM (Sertec, UK) or rabbit antimyeloperoxidase (Dacko) antibodies in 5% rat serum. Primary antibodies were visualized using either goat anti-mouse conjugated to Oregon Green or goat anti-rabbit conjugated to Oregon-Green (Molecular Probes, Eugene, Oreg.) in 5% rat serum. Adjacent sections were incubated without primary antisera to control for non-specific binding of the secondary antiserum. Sections were viewed using a fluorescent microscope and images acquired and stored using Spot Advanced imaging software (Spot Image Corporation, Chantilly, Va.). […]
Myeloperoxidase-IR cells were quantified from cryostat sections through the maximal area of infarction labeled with rabbit anti-myeloperoxidase antibody followed by anti-rabbit antibodies conjugated to Oregon-green. Digital photographs of high powered fields covering a representative section were analyzed in Adobe Photoshop by overlaying a grid and counting all myeloperoxidase-IR cells. The average number of myeloperoxidase-IR cells per high powered field (360 μm2) was calculated and plotted using data from at least three animals.

ICAM = ICAM immunohistochemistry of brain sections after MCAO; format: in vivo, rat; settings: rosiglitazone 0.1 mg/kg or pioglitazone 1 mg/kg 24 h before and at time of MCAO; sacrificed 24 h later
Description: Animals were euthanized and brains prepared in the same manner described for infarct volume determination. Frozen sections of the brains were cut coronally at ten microns. Sections were collected every 1000 mm beginning at the level of the forceps minor corpus callosum and extending through the hippocampus. Ten micron cryostat sections were labeled using either mouse anti-ICAM (Sertec, UK) or rabbit antimyeloperoxidase (Dacko) antibodies in 5% rat serum. Primary antibodies were visualized using either goat anti-mouse conjugated to Oregon Green or goat anti-rabbit conjugated to Oregon-Green (Molecular Probes, Eugene, Oreg.) in 5% rat serum. Adjacent sections were incubated without primary antisera to control for non-specific binding of the secondary antiserum. Sections were viewed using a fluorescent microscope and images acquired and stored using Spot Advanced imaging software (Spot Image Corporation, Chantilly, Va.). Some sections were also imaged using confocal microscopy.

ICAM mRNA = ICAM mRNA by real time PCR after MCAO; format: in vivo, rat; settings: rosiglitazone 0.1 mg/kg or pioglitazone 1 mg/kg 24 h before and at time of 2 hour MCAO; sacrificed 24 h later
LPL mRNA = assay: Lipoprotein lipase (LPL) mRNA by real time PCR after MCAO; format: in vivo, rat; settings: rosiglitazone 0.1 mg/kg, pioglitazone 1.0 mg/kg; 24 h before and at time of 2 hour MCAO; tissue 24 h later
Description: At the time of sacrifice the animal was placed in an anesthesia chamber and exposed to 5% halothane, 30% oxygen, 65% nitrous oxide until it ceased breathing. The rat was the, processed for either histologic and immunocytochemical analysis or decapitated and the brain immediately dissected for mRNA isolation. Animals used for immunohistochemistry underwent intracardiac perfusion; the thoracic cavity was opened, a blunt needle placed through the left ventricle into the aorta and the right atrium cut. Animals were perfused through the heart, first with 0.1 M phosphate buffer and then with 4% paraformaldehyde (pH 7.4). The brain was removed from the rat and immersion fixed in 4% paraformaldehyde for an additional hour. Tissue was then transferred to 30% sucrose in phosphate buffer in order to cyroprotect it. Brains were mounted in OCT sectioning medium and frozen sections cut at either twenty microns (for infarct volume determination) or ten microns (for immunocytochemistry). Animals used in real time PCR experiments were decapitated after euthanasia and the brain quickly removed.
A 2 mm thick coronal slice of tissue through the area of maximal infarction was quickly homogenized in Trizol (Gibco BRL, Rockville, Md.). […] RNA was isolated using Life Technologies Protocol (Rockville, Md.), and cDNA synthesized from 1.5 μg of total RNA. […]

[2] = two hour continuous monitoring; previously shown; cited from earlier work
[3] = test system: rodent models of cerebral ischemia; settings: cited from earlier work
3T3-L1 cells = settings: cited from earlier work
dopaminergic cell death = settings: Parkinson's disease model; cited from earlier work

In the case of `CCc1ccc(CCOc2ccc(CC3SC(=O)NC3=O)cc2)nc1` (stereo not shown) [pioglitazone, 5-[4-[2-(5-ethylpyridin-2-yl)ethoxyl]benzyl]thiazolidine-2,4-dione], the “infarction volume relative to vehicle injected rats” value ([1]; 0.5 mg/kg IP 24 h before and at time of 2 hour MCAO) is reported as “did not significantly reduce infarction volume”, the “infarct volume compared to vehicle treated rats” value ([1]; 1 mg/kg IP 1 hour after onset of 2 hour MCAO) is reported as “significantly reduce infarction volume; also recorded: significantly reduced” and the “infarct volume compared to vehicle treated rats” value ([1]; 1 mg/kg IP 6 hours after onset of 2 hour MCAO) is reported as “not when given three or six hours after MCAO; also recorded: no significant change in infarct volume”. For the same molecule, the “infarction volume relative to vehicle injected rats” value ([1]; 1 mg/kg IP 24 h before and at time of 2 hour MCAO) was “significantly reduced infarction size”, the “infarction volume relative to vehicle injected rats” value ([1]; 1 mg/kg IP 24 h before and at time of 2 hour MCAO, listed as Pioglitazone) was “did significantly reduce infarction volume; also recorded: significantly reduced infarction volume” and the “infarction volume relative to vehicle treated rats” value ([1]; 1 mg/kg IP 24 h before and at time of MCAO, permanent occlusion, listed as Pioglitazone) was “no significant protection was evident”. For the same molecule, the “infarction volume relative to vehicle injected rats” value ([1]; 3.5 mg/kg IP 24 h before and at time of 2 hour MCAO) was “did significantly reduce infarction volume”, the “infarction volume relative to vehicle injected rats” value ([1]; 7 mg/kg IP 24 h before and at time of 2 hour MCAO) was “protection was lost” and the “optimal dose for neuroprotection” value ([1]; IP 24 h before and at time of 2 hour MCAO, infarct volume 24 h after MCAO) was 1 mg/kg. The “infarct volume compared to vehicle treated rats” value ([1]; pioglitazone 1 mg/kg or rosiglitazone 0.1 mg/kg 3 hours after MCAO onset, reperfusion at 2 hours (before treatment)) was “not when given three or six hours after MCAO; also recorded: infarction volumes which were similar to animals injected with vehicle; also recorded: no significant change in infarct volume; also recorded: infarction volumes similar to those previously seen in untreated and vehicle treated rats”, the “infarction volume relative to rats reperfused at two hours” value ([1]; pioglitazone 1 mg/kg or rosiglitazone 0.1 mg/kg 3 hours after MCAO onset, reperfusion at 3 hours 15 minutes (after treatment)) was “neuroprotective when given up to three hours after MCAO, but only if reperfusion occurs after treatment; also recorded: significantly smaller infarctions volumes; also recorded: significantly reduced infarction volumes” and the “myeloperoxidase-IR cells within the ischemic hemisphere” value (myeloperoxidase-IR cells; reperfused at 2 h and treated at 3 h, relative to treated at 3 h and reperfused at 3.25 h) was “significantly increased numbers of myeloperoxidase-IR cells”. The “number of myeloperoxidase-IR cells per high powered field” value (myeloperoxidase-IR cells; rosiglitazone 0.1 mg/kg or pioglitazone 1 mg/kg at 3 h, reperfusion delayed to 3.25 h, relative to reperfusion at 2 h) was “significantly reduced”, the “ICAM-IR in brain sections compared with vehicle treated rats” value (ICAM) was “less is seen” and the “ICAM mRNA compared with vehicle treated rats” value (ICAM mRNA) was “significant reduction in ICAM mRNA”. The “increase in LPL mRNA levels within the ischemic hemisphere” value (LPL mRNA) was 307%, the cerebral blood flow [2] was “no significant change in cerebral blood flow” and the “neuroprotection in rodent models of cerebral ischemia” value ([3]; in vivo) was “effective neuroprotective agents”. For the same molecule, the “efficacy of oral pretreatment” value ([3]; permanent ischemia) was “but not permanent ischemia”, the “efficacy of oral pretreatment” value ([3]; transient ischemia) was “effective in transient” and the “effect on PPARγ-corepressor complex” value (3T3-L1 cells) was “dissociation of the PPARγ-corepressor complex and transcriptional activation”. The dopaminergic cell death (dopaminergic cell death) was “attenuates dopaminergic cell death”.

Source: US20100331330A1, “METHODS AND COMPOSITIONS FOR TREATING ISCHEMIC STROKE” (priority 2006, published 2010)
